For experiment [1], the target named is T1, dopamine D-1 receptors (Rattus norvegicus, UniProt P18901).
T1 construct: Retinal tissue was removed from the eyeball and homogenized; from tissue; host or cells: rat retina homogenate (adult male Sprague-Dawley)
The experiment can be described thus: Retinal Adenylate Cyclase Assay (dopamine D-1 antagonist assay). Type of experiment: biochemical, rat (adult male, Sprague-Dawley). Conditions: 10 μM dopamine, rat retina homogenate; for inhibition at 0.1 µM: 0.1 μM drug; for inhibition at 1 µM: 1.0 μM drug; for inhibition at 3 µM: 3.0 μM drug; for inhibition at 10 µM: 10.0 μM drug; for inhibition at 100 µM: 100.0 μM drug. As to the method:
The compounds of this invention are dopamine D-1 antagonists without D-2 agonist activity; i.e., they counter the effects of dopamine at D-1 receptors in the brain. The dopamine D-1 antagonist assay was carried out as follows.
Retinal Adenylate Cyclase Assay
Adult male, Sprague-Dawley rats purchased from Charles River Breeding Laboratories (North Wilmington, Mass.) were used in these studies. The rats were decapitated and the eyeballs were removed. The eyeballs were bisected at the juncture of the sclera and iris using capsulotomy scissors. The retina was dissociated from the choroid by irrigation with saline. Retinal tissue was removed from the eyeball and homogenized with Tris-2 mM EGTA (pH 7.4; 1:150 wt.:vol.) using a teflon-glass Dounce homogenizer at a speed of 50 rpm.
The adenylate cyclase assay was performed at an incubation temperature of 30° C. and over a 20-minute reaction period. The reaction mixture contained the following constant ingredients: 2 mM MgSO4, 0.5 mM EGTA, 1 mM IBMX, 0.01 mM GTP, 80 mM Tris-HCl, pH 7.4, 0.5 mM ATP with 3-5×10^6 cpm ^32 P-ATP and 20-25 μg retinal homogenate protein. The reaction mixture also contained various concentrations of the compound tested alone or in the presence of 10 μM dopamine. The reaction was started by the addition of ATP/^32 P-ATP and was stopped by the addition of a solution containing 1% SDS, 20 mM ATP, 0.7 mM cyclic AMP, 80 mM Tris-HCl pH 7.4 and 10^4 cpm ^3 H-cyclic AMP in a total volume of 200 μl. This mixture was heated for 2 minutes at 90° C. to further insure reaction termination. The ^32 P cyclic AMP formed during the reaction was isolated from each sample using the chromatographic method of Solomon (1979). The ^3 H-cyclic AMP was also simultaneously isolated with this procedure. The net ^32 P-cyclic AMP formed was calculated by correcting the final ^32 P cpm for column recovery efficiency delermined by the ^3 H recovery and for background radioactivity determined by the radioactivity in incubates without homogenate. Homogenate protein determinations were made using the BioRad protein assay with bovine serum albumin used at the reference protein. Dopaminergic agonist activity was evaluated based upon percent stimulation over activity without drug. Dopaminergic antagonist activity was estimated based upon the percent inhibition of the response to 10 μM dopamine.
In the Table, column 1 gives the name of the compound, column 2, the concentration of drug in the medium, and column 3, the percent inhibition of 10 μM dopamine.

Experiment [2] has as its system prolactin secretion (D-2). Description: Inhibition of prolactin secretion in nonreserpinized rats (test for D-2 dopamine agonist activity). The experiment is classed as in vivo, rat (adult male, Sprague-Dawley). Conditions: 1 hour after treatment, rat serum. As for the experimental part:
The drugs of this invention, represented by formulas II and III, are shown to lack D-2 dopamine agonist activity at D-1 antagonist dose levels in a test to determine their ability (or inability) to inhibit the secretion of prolactin in nonrespernized rats. This test was carried out as follows.
Adult male rats of the Sprague-Dawley strain weighing about 200 g. were housed in an air-conditioned room with controlled lighting (14 hours light-10 hours dark) and fed lab chow and water ad libitum. The compound was dissolved in 10 percent ethanol, and injected intraperitoneally at a dose of 1 or 2 mg/kg. The compound was administered to a group of 10 rats, and a control group of 10 intact males received an equivalent amount of 10 percent ethanol. One hour after treatment, all rats were killed by decapitation, and 150 μl aliquots of serum were assayed for prolactin.
The difference between the mean prolactin level of the treated rats and mean prolactin level of the control rats, divided by the mean prolactin level of the control rats, gives the percent change in prolactin secretion attributable to the given dose.

Experiment [3] relates to prolactin. Conditions: found by Clemens, Semonsky, Meites and co-workers; cited from earlier work.

Structures can show the parent of a compound that is named as a salt.

T1 sequence (P18901 whole entry): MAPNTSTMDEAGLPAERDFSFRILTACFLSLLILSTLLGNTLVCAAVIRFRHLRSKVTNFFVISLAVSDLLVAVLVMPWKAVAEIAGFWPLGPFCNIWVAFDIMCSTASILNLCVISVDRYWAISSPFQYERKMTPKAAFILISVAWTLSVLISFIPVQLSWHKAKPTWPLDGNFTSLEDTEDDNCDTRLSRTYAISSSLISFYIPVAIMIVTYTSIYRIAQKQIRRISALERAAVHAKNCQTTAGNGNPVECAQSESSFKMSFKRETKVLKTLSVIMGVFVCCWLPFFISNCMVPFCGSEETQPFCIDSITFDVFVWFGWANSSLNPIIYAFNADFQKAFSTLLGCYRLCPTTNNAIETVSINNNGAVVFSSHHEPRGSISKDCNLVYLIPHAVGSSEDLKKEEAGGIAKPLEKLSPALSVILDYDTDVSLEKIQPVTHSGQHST

In the case of `CSC[C@@H]1C[C@@H]2c3cccc4[nH]c(SC)c(c34)C[C@H]2N(C)C1` [D-2-methylthio-6-methyl-8β-methylthiomethylergoline], in experiment [1], the inhibition at 0.1 µM was -5%, the inhibition at 1 µM came to 26.4 ± 6%, the inhibition at 3 µM turned out to be 49 ± 0.8% and the inhibition at 10 µM came to 72.5 ± 4.8%. For the same compound, the inhibition at 100 µM in experiment [1] worked out at 76.6 ± 7.7%. For the same compound, the inhibition at 30 µM in experiment [1] (30.0 μM drug) worked out at 73.8 ± 4.2%. In experiment [2] (2 mg/kg i.p., * statistically significant at p < 0.05), the “Percent changes in prolactin (stimulation)” value worked out at 54%.

As to `CC(C)C[C@H]1C(=O)N2CCC[C@H]2[C@]2(O)O[C@](NC(=O)[C@@H]3C=C4c5cccc6[nH]c(Br)c(c56)C[C@H]4N(C)C3)(C(C)C)C(=O)N12` [2-bromo α-ergokryptine], in experiment [3], the “activity as prolactin inhibitors” value is listed as “activity as prolactin inhibitors”.

Consider `CC(C)[C@H]1C(=O)N2CCC[C@H]2[C@]2(O)O[C@](NC(=O)[C@@H]3C[C@@H]4c5cccc6[nH]cc(c56)C[C@H]4N(C)C3)(C(C)C)C(=O)N12` [dihydroergocornine], for which, in experiment [3], the “activity as prolactin inhibitors” value is recorded as “activity as prolactin inhibitors”.

Regarding `CSc1[nH]c2cccc3c2c1CC(N(C)C)C3` (racemic) [(±)-2-methylthio-4-dimethyamino-1,3,4,5-tetrahydrobenz[c,d]indole maleate], in experiment [1], the inhibition at 0.1 µM was -5.3%, the inhibition at 1 µM worked out at 0.9 ± 1.5%, the inhibition at 3 µM worked out at 19.1 ± 6.4% and the inhibition at 10 µM is 34.7 ± 13%. Further, the inhibition at 100 µM in experiment [1] stood at 84 ± 3.3%. Further, the inhibition at 0.3 µM in experiment [1] (0.3 μM drug) was -2.2 ± 3.8%. In addition, the inhibition at 1 mg/kg in experiment [2] (ip, 1 mg/kg i.p., not marked as statistically significant, read-out: Percent changes in prolactin (inhibition)) is 9%.

With `CN1CC(CC#N)C[C@@H]2c3cccc4[nH]cc(c34)C[C@H]21` (stereo partly drawn) [D-6-methyl-8-cyanomethylergoline], the “activity as prolactin inhibitors” value in experiment [3] is reported as “activity as prolactin inhibitors”.

As for `CSc1[nH]c2cccc3c2c1C[C@@H]1[C@@H]3CC(CC#N)CN1C` (stereo partly drawn) [D-2-methylthio-6-methyl-8-cyanomethylergoline], the inhibition at 2 mg/kg in experiment [2] (ip, 2 mg/kg i.p., * statistically significant at p < 0.05, read-out: Percent changes in prolactin (inhibition)) stood at 68%.

Take `CC(C)[C@H]1C(=O)N2CCC[C@H]2[C@]2(O)O[C@](NC(=O)[C@@H]3C=C4c5cccc6[nH]cc(c56)C[C@H]4N(C)C3)(C(C)C)C(=O)N12` [Ergocornine]: the “activity as prolactin inhibitors” value in experiment [3] is “activity as prolactin inhibitors”.

By inhibition is commonly meant the drop in the measured response relative to a control, in per cent.

The record behind these values is patent US4801712A, “2-Alkyl(or phenyl)thio-6-n-alkylergolines are dopamine D-1 antagonists without D-2 agonist activity” (Eli Lilly and Company, priority 1987, dated 1989).
